Assay results taken from EP4656630A1, “NOVEL COMPOUND AS LYSYL-TRNA SYNTHETASE 1 INHIBITOR, AND USE THEREOF” (Zymedi Co., Ltd., priority 2023, dated 2024).

Columns and labels:
Raw 264.7 cells = test: LN (Laminin 421)-induced immune cell migration, Transwell; assay type: cell-based; details: Mus musculus, RAW264.7; 3 µM compound, LN (Laminin 421 1 µg/ml), 24 hours, % inhibition compared to control group; read-out: Migration inhibitor % (3uM)
Procedure: Cell migration was assessed based on the method described in the prior literature (Park, S. G. et al. Human lysyl-tRNA synthetase is secreted to trigger proinflammatory response. Proceedings of the National Academy of Sciences, 2005, 102.18: 6356-6361.). The specific experimental method is as follows. A Transwell (Corning#3421-5µm pore) was coated with gelatin (0.5mg/ml), and then Raw 264.7 cells (1 x 10^5 cells/well) were seeded in the upper chamber. Serum-free medium (Serum Free DMEM, 500 µl) containing LN (Laminin 421 1 µg/ml) was added to the lower chamber. Each compound was treated at a concentration of 3µM in the upper chamber. After 24 hours, the cells were fixed with 70% methanol for 30 minutes and stained with 50% hematoxylin for 30 minutes. Non-migrating cells on the upper side of the membrane were removed with a cotton swab, and the membrane was mounted on a slide. Migrating cells on the lower side of the membrane were observed under a high-power microscope, and the number of cells was measured from the obtained images and expressed as the inhibition rate (% inhibition) compared to the control group.

KARS1 and 37LR = target: T1, KARS1 and 37LR (Homo sapiens, UniProt Q15046); test: Cell-free ELISA of KARS1 and 37LR (laminin receptor) binding; details: 10 µM compound, 1 hour, plate coated with KARS1 (1-207aa), LRF
T1 construct: KARS1 (1-207aa)
Procedure: Next, based on the mechanism of action, a cell-free ELISA analysis was conducted to select compounds with high inhibitory activity on the binding of KARS1 and LR (laminin receptor).

Raw264.7 cells = test: KARS1-induced trans-migration assay; assay type: cell-based, mouse; details: Mus musculus, RAW264.7; 1 µM compound; read-out: KARS1-induced Raw264.7 cell migration (% inhibition, 1uM)
Procedure: C0001 inhibits the binding of KARS1 and 67LR, thereby blocking the migration of monocytes/macrophages and suppressing inflammation. Accordingly, a trans-migration assay using mouse macrophages (Raw264.7) was conducted to preliminarily screen drugs that inhibit the migration of monocytes/macrophages.
Based on this, when KARS1 protein was directly treated externally instead of LN, the trans-migration of Raw264.7 was induced, and the cell migration inhibitory effect of the KARS1 inhibitor C0001 was confirmed. It was verified that C0001, which specifically binds to KARS1, can inhibit cell migration by binding to extracellular KARS1, in addition to the mechanism of inhibiting cell membrane migration of KARS1 induced by laminin and its binding to 67LR, thereby enabling this analysis to be used as a direct method for evaluating in vitro activity against KARS1.
Next, preliminary candidate substances with high inhibitory activity at 1 µM were treated at concentrations of 0.1~4 µM for analysis.

[1] = Microsomal metabolic stability, rat; assay type: in vitro ADME
Procedure: (§1) Metabolic stability (MS) evaluation was conducted for the selected compounds by measuring in vitro stability in two species, rat and human, according to the microsomal stability measurement method. As a result, it was identified that MS varied depending on the transformation of parts A, B, and C.

[2] = Microsomal metabolic stability, human; assay type: in vitro ADME
Procedure: as §1

T1 sequence (Q15046 1-207): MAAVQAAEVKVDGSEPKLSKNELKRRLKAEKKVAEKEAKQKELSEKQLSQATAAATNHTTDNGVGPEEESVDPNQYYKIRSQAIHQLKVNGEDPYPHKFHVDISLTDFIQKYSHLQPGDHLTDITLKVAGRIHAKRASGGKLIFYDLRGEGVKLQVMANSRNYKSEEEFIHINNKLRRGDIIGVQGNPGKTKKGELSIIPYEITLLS

| inhibition at 10 µM (KARS1 and 37LR) | Metabolic stability (% remaining at 30 min) Rat [1] | Metabolic stability (% remaining at 30 min) Human [2] | Compound | inhibition at 3 µM (Raw 264.7 cells) | inhibition at 1 µM (Raw264.7 cells) |
| --- | --- | --- | --- | --- | --- |
| 68.2% |  |  | COc1ccc(CCN(Cc2ccc(C(=O)NCC(=O)O)cc2)c2nc3cccc(F)c3s2)cc1 [Compound 16, (4-(((7-fluorobenzo[d]thiazol-2-yl)(4-methoxyphenethyl)amino)-methyl)benzoyl)glycine] | 33% | 86.2% |
| 79% | 71% | 58% | COc1ccc(CCN(Cc2cccc(N3CCC(C(=O)O)C3)c2)c2nc3cccc(F)c3s2)cc1 (stereo not shown) [Compound 17, 1-(3-(((7-fluorobenzo[d]thiazol-2-yl)(4-methoxyphenethyl)amino)-methyl)phenyl)pyrrolidine-3-carboxylic acid] | 42% | 5.6% |
| 3.4% |  |  | COc1ccc(CCN(Cc2cccc(N3CCC[C@H]3C(=O)O)c2)c2nc3cccc(F)c3s2)cc1 [Compound 20, (3-(((7-fluorobenzo[d]thiazol-2-yl)(4-methoxyphenethyl)amino)-methyl)phenyl)-L-proline] | 18% | 49.1% |
| 52% |  |  | COc1ccc(CCN(Cc2cccc(N3CC[C@H](C(=O)O)C3)c2)c2nc3cccc(F)c3s2)cc1 [Compound 22, (S)-1-(3-(((7-fluorobenzo[d]thiazol-2-yl)(4-methoxyphenethyl)amino)-methyl)phenyl)pyrrolidine-3-carboxylic acid] | 19% | 43.4% |
| 71.6% |  |  | COc1ccc(CCN(Cc2cccc(N3CC[C@@H](C(=O)O)C3)c2)c2nc3cccc(F)c3s2)cc1 [Compound 23, (R)-1-(3-(((7-fluorobenzo[d]thiazol-2-yl)(4-methoxyphenethyl)amino)-methyl)phenyl)pyrrolidine-3-carboxylic acid] | 59% | 35.4% |
| 65.9% |  |  | COc1ccc(CCN(Cc2ccc(N3CC[C@@H](C(=O)O)C3)cc2)c2nc3cccc(F)c3s2)cc1 [Compound 24, (R)-1-(4-(((7-fluorobenzo[d]thiazol-2-yl)(4-methoxyphenethyl)-amino)methyl)phenyl)pyrrolidine-3-carboxylic acid] | 68% | 96.3% |
| 64% |  |  | COc1ccc(CCN(Cc2ccc3c(c2)CN(C(N)=O)C3)c2nc3cccc(F)c3s2)cc1 [Compound 30, 5-(((7-fluorobenzo[d]thiazol-2-yl)(4-methoxyphenethyl)amino)-methyl)isoindoline-2-carboxamide] | 37.4% | 3.2% |
| -27.9% |  |  | COc1ccc(CCN(Cc2ccc3c(c2)CN(CC(=O)O)C3)c2nc3cccc(F)c3s2)cc1 [Compound 32, 2-(5-(((7-fluorobenzo[d]thiazol-2-yl)(4-methoxyphenethyl)amino)-methyl)isoindolin-2-yl)acetic acid] | 45% | 18.1% |
| 37.5% |  |  | COc1ccc(CCN(Cc2ccc(N3CC(C(=O)O)C3)cc2)c2nc3cccc(F)c3s2)cc1 [Compound 39, 1-(4-(((7-fluorobenzo[d]thiazol-2-yl)(4-methoxyphenethyl)amino)-methyl)phenyl)azetidine-3-carboxylic acid] | 51.9% | 97.4% |

Further lines, the compound ahead of its results:

| Compound | inhibition at 10 µM (KARS1 and 37LR) | Metabolic stability (% remaining at 30 min) Rat [1] | Metabolic stability (% remaining at 30 min) Human [2] | inhibition at 3 µM (Raw 264.7 cells) | inhibition at 1 µM (Raw264.7 cells) |
| --- | --- | --- | --- | --- | --- |
| COc1ccc(CCN(Cc2ccc(N3CCC(C(=O)O)C3)cc2)c2nc3cccc(F)c3s2)cc1 (stereo not shown) [Compound 13, 1-(4-(((7-fluorobenzo[d]thiazol-2-yl)(4-methoxyphenethyl)amino)-methyl)phenyl)pyrrolidine-3-carboxylic acid] | 83.9% | 90% | 74% | 90% | 93.4% |
| COc1ccc(CCN(Cc2ccc(C(=O)N3CCC[C@H]3C(=O)O)cc2)c2nc3cccc(F)c3s2)cc1 [Compound 14, (4-(((7-fluorobenzo[d]thiazol-2-yl)(4-methoxyphenethyl)amino)-methyl)benzoyl)-L-proline] | 100% |  |  | 32% | 73.4% |
| COc1ccc(CCN(Cc2ccc(C(=O)N3CCC(C(=O)O)C3)cc2)c2nc3cccc(F)c3s2)cc1 (stereo not shown) [Compound 15, 1-(4-(((7-fluorobenzo[d]thiazol-2-yl)(4-methoxyphenethyl)amino)-methyl)benzoyl)pyrrolidine-3-carboxylic acid] | 86.4% |  |  | 0% | 54.4% |
| COc1ccc(CCN(Cc2ccc(C(=O)N[C@@H](C(=O)O)C(C)C)cc2)c2nc3cccc(F)c3s2)cc1 [Compound 18, (4-(((7-fluorobenzo[d]thiazol-2-yl)(4-methoxyphenethyl)amino)-methyl)benzoyl)-D-valine] | 86.2% |  |  | 9% | 31% |
| COc1ccc(CCN(Cc2ccc(N3CCC[C@H]3C(=O)O)cc2)c2nc3cccc(F)c3s2)cc1 [Compound 19, (4-(((7-fluorobenzo[d]thiazol-2-yl)(4-methoxyphenethyl)amino)-methyl)phenyl)-L-proline] | 75.8% |  |  | 15% | 69% |
| COc1ccc(CCN(Cc2nc3ccc(B(O)O)cc3n2C)c2nc3cccc(F)c3s2)cc1 [Compound 21, (2-(((7-fluorobenzo[d]thiazol-2-yl)(4-methoxyphenethyl)amino)-methyl)-1-methyl-1H-benzo[d]imidazol-6-yl)boronic acid] | 8.9% |  |  | 36% | 26.1% |
| COc1ccc(CCN(Cc2ccc(-c3ccc(C(=O)O)o3)cc2)c2nc3cccc(F)c3s2)cc1 [Compound 26, 5-(4-(((7-fluorobenzo[d]thiazol-2-yl)(4-methoxyphenethyl)amino)-methyl)phenyl)furan-2-carboxylic acid] | 78.4% |  |  | 48% | 80.6% |
| COc1ccc(CCN(Cc2nc3ccc(C(=O)O)cc3n2C)c2nc3cccc(F)c3s2)cc1 [Compound 27, 2-(((7-fluorobenzo[d]thiazol-2-yl)(4-methoxyphenethyl)amino)methyl)-1-methyl-1H-benzo[d]imidazole-6-carboxylic acid] | 14% |  |  | 9% | 9.1% |
| COc1ccc(CCN(Cc2ccc(NC3(C(=O)O)CCC3)cc2)c2nc3cccc(F)c3s2)cc1 [Compound 33, 1-((4-(((7-fluorobenzo[d]thiazol-2-yl)(4-methoxyphenethyl)amino)-methyl)phenyl)amino)cyclobutane-1-carboxylic acid] | 41.9% |  |  | 15.7% | 57.6% |
| O=C(O)[C@@H]1CCN(c2cccc(CN(CCc3ccc(OC(F)(F)F)cc3)c3nc4cccc(F)c4s3)c2)C1 [Compound 40, (R)-1-(3-(((7-fluorobenzo[d]thiazol-2-yl)(4-(trifluoromethoxy)-phenethyl)amino)methyl)phenyl)pyrrolidine-3-carboxylic acid] | 66.7% |  |  | 37.7% | 76.1% |
